Reference: ChEMBL document CHEMBL4392860, “Characterization of the substrate scope of an alcohol dehydrogenase commonly used as methanol dehydrogenase” (Bioorg Med Chem Lett, 2019)

What was measured:
Settings in all cases: DSM 2334
[1] = test system: Geobacillus stearothermophilus
Description: Substrate activity at Geobacillus stearothermophilus DSM 2334 ADH expressed in Escherichia coli BL21 (DE3) assessed as Kcat in 50 mM HEPES buffer at pH 7.5 at 23 degC by MTT dye based Lineweaver-Burk plot analysis

[2] = test system: Geobacillus stearothermophilus; remark: listed apart in the source
Description: Substrate activity at Geobacillus stearothermophilus DSM 2334 ADH expressed in Escherichia coli BL21 (DE3) assessed as Km in 50 mM HEPES buffer at pH 7.5 at 23 degC by MTT dye based Lineweaver-Burk plot analysis

[3] = test system: Geobacillus stearothermophilus; remark: listed apart in the source
Description: Substrate activity at Geobacillus stearothermophilus DSM 2334 ADH expressed in Escherichia coli BL21 (DE3) assessed as Kcat/Km ratio in 50 mM HEPES buffer at pH 7.5 at 23 degC by MTT dye based Lineweaver-Burk plot analysis

Compound | kcat [1] [s⁻¹] | Km [2] [mM] | kcat/Km [3] [M⁻¹ s⁻¹]
CC(C)O | 0.076 | 1.26 | 60.3
CCC(C)O (configuration not stated) | 0.094 | 23.8 | 3.96
CC(C)(C)O | 0.026 |  | 0.046
CO | 0.013 |  | 0.044
CCO | 0.019 | 2.95 | 6.26

Second part, the compound after the results:

kcat [1] [s⁻¹] | Km [2] [mM] | kcat/Km [3] [M⁻¹ s⁻¹] | Compound
0.004 | 2.45 | 1.67 | CCCCO
0.041 | 23.6 | 1.71 | OCCCO
0.019 | 39.8 | 0.46 | CCCO
